Results: the NIST ThermoML archive (doi:10.1021/je400803f)
± gives the expanded uncertainty stated by the source.

Conditions: 101.33 kPa, Liquid, Vibrating tube method

Compound	mass density (293.15 K) [kg/m3]	mass density (298.15 K) [kg/m3]	mass density (303.15 K) [kg/m3]	mass density (308.15 K) [kg/m3]	mass density (313.15 K) [kg/m3]	mass density (318.15 K) [kg/m3]	mass density (323.15 K) [kg/m3]
CCNC=O [N-ethylformamide]	951.59 ± 0.07	947.48 ± 0.07	943.29 ± 0.07	939.04 ± 0.07	934.78 ± 0.07	930.45 ± 0.07	926.06 ± 0.08
CC(=O)N(C)C [N,N-dimethylethanamide]	940.92 ± 0.23	936.3 ± 0.23	931.62 ± 0.23	926.89 ± 0.23	922.09 ± 0.23	917.23 ± 0.23	912.23 ± 0.23
CN(C)C=O [dimethylformamide]	948.72 ± 0.23	943.86 ± 0.23	939 ± 0.23	934.08 ± 0.23	929.13 ± 0.23	924.06 ± 0.23	918.96 ± 0.23
CCCC[N+]1(C)CCCC1.FC(F)(F)C(F)(F)[P-](F)(F)(F)(C(F)(F)C(F)(F)F)C(F)(F)C(F)(F)F	1588.56 ± 0.76	1583.15 ± 0.76	1577.67 ± 0.75	1572.16 ± 0.75	1566.62 ± 0.74	1561.06 ± 0.74	1555.48 ± 0.73
CCCCN(C=O)CCCC [N,N-dibutylformamide]	879.05 ± 0.23	875.12 ± 0.23	871.17 ± 0.23	867.15 ± 0.23	863.11 ± 0.23	859.01 ± 0.23	854.82 ± 0.23
CNC=O [N-methylformamide]	1003.35 ± 0.23	998.91 ± 0.23	994.49 ± 0.23	990.01 ± 0.23	985.47 ± 0.23	980.88 ± 0.23	976.24 ± 0.23
